Several values for one entry are separate records, joined by “and”; a condition that tells them apart may be missing. Identical values can stand only once. Like-named read-outs stand apart in the source and are kept apart here.
Tests used:
LNCaP-S14 cells [1] = assay: Cell cycle analysis by flow cytometry, LNCaP-S14; format: cell-based, human
Description: (§1) Cells were exposed to SMIPs (40 μM) for 24 h and 48 h. Cells were trypsinized, washed with PBS and suspended in 600 μL PBS. Cells were fixed by adding 1.4 mL cold absolute ethanol and kept at -20°C for at least 12 h. After washing once with PBS, the cells were resuspended in 250 μL PBS containing 2.5 μg RNAse A and incubated for 45 min at room temperature. Staining was done by adding 40 μg/mL of propidium iodine followed by incubation for 15 min at room temperature. DNA-bound fluorescence was read at 564 to 606 nm using FACSort and FACSCanto flow cytometers (BD Biosciences) at the Flow Cytometry Facility of the Sanford-Burnham Medical Research Institute. Distribution of cells in the different cell cycle phase was determined with ModFit LT 3.2.1 or FlowJo 8.6 software. Aggregates were excluded from the analysis manually using pulse shape or identified by automated modelling in ModFit LT.

DU145 cells [2] = assay: Cell cycle analysis by flow cytometry, DU145; format: cell-based, human
Description: as §1

PC3 cells = assay: Cell cycle analysis by flow cytometry, PC3; format: cell-based, human
Description: as §1

IMR90 cells = assay: Cell cycle analysis by flow cytometry, IMR90; format: cell-based, human
Description: as §1

[3] = test system: p27 protein levels in LNCaP-S14 cells; assay: Immunoblot quantification of p27, LNCaP-S14; format: cell-based, human
Description: (§2) Total cell lysate from cells treated with vehicle (DMSO) or compounds were obtained by incubating cells in lysis buffer (25 mM Tris-HCl pH 7.4, 150 mM NaCl, 0.5% Triton X-100, protease inhibitors) for 15 min at 4°C. The supernatant was collected by centrifugation and the amount of protein was determined with a Bio-Rad protein assay (Bio-Rad) using BSA as standard. Equal amounts of protein were subjected to SDS-PAGE (4%-20% gels, Invitrogen) and transferred to PVDF membranes. The membranes were blocked with TBST (50 mM Tris-HCl pH 7.5, 150 mM NaCl, 0.05% Tween-20) containing 5% non-fat dry milk or bovine serum albumin (BSA) for 1 h at room temperature, followed by incubation in primary antibodies 4°C overnight. Membranes were washed and incubated with secondary antibodies conjugated to HRP (Jackson ImmunoResearch Laboratories) for 1 h at room temperature. Signals were visualized using the ECL Western Blotting Substrate (Pierce Biotechnology, IL, USA) according to the manufacturer's instructions. Membranes were stripped using Restore™ Western Blot Stripping Buffer (Pierce Biotechnology). Films were scanned and quantification of the bands was performed using Image J software http://rsbweb.nih.gov/ij/.

[4] = test system: p21 protein levels in LNCaP-S14 cells; assay: Immunoblot quantification of p21, LNCaP-S14; format: cell-based, human
Description: as §2

[5] = test system: p21 protein levels in LNCaP cells; assay: Immunoblot quantification of p21, LNCaP; format: cell-based, human
Description: as §2

[6] = test system: p27 protein levels in PC3 cells; assay: Immunoblot quantification of p27, PC3; format: cell-based, human
Description: as §2

[7] = test system: p21 protein levels in PC3 cells; assay: Immunoblot quantification of p21, PC3; format: cell-based, human
Description: as §2

[8] = test system: p27 protein levels in HeLa cells; assay: Immunoblot quantification of p27, HeLa; format: cell-based, human
Description: as §2

[9] = test system: p21 protein levels in HeLa cells; assay: Immunoblot quantification of p21, HeLa; format: cell-based, human
Description: as §2

[10] = test system: p21 protein levels in IMR90 cells; assay: Immunoblot quantification of p21, IMR90; format: cell-based, human
Description: as §2

[11] = test system: p27 stability in LNCaP-S14 cells; assay: Protein half-life by cycloheximide chase; format: cell-based, human; details: LNCaP-S14, 40 μM SMIPs 18 h, then cycloheximide 100 μg/mL; DMSO ~ 1.29 h
Description: LNCaP-S14 cells were treated with SMIPs (40 μM) for 18 h followed by the addition of 100 μg/mL cycloheximide (CHX). Cell extracts were obtained as described above at different times after CHX addition. Protein lysate was subjected to SDS-PAGE and immunoblotting for p27, p21 and SKP2. Tubulin was used as loading control. Protein half-lives were calculated using a web based calculator http://www.1728.com/halflife.htm.

LNCaP-S14 cells [12] = assay: Cell Death Detection ELISA (cytoplasmic histone-associated DNA fragments); format: cell-based, human
Description: Apoptosis was measured using the Cell Death Detection ELISA (Roche, Basel, Switzerland) following the manufacturer's instructions. Briefly, LNCaP-S14 cells (0.1 × 10^6) were seeded in 12-well plates and treated with SMIPs (40 μM) for 24 h. Cells were collected in medium, spun at 1000 rpm, and resuspended in 1 mL PBS at the specified time points (day 1 to day 3). The cell suspension was divided into two parts. The first half was used for determination of cytoplasmic histone-associated DNA fragments (ELISA), the second for protein determination to normalize the ELISA data to the amount of input protein.

DU145 cells [13] = assay: MTT cytotoxicity assay, DU145; details: Homo sapiens, read-out: IC50 (MTT cytotoxicity)
Description: (§3) LNCaP-S14 (10,000 cells), PC3, DU145 or IMR90 cells (5000 cells) were seeded in 96-well plates and treated with increasing concentrations of the respective SMIPs for 72 h. Cell viability was assessed using the MTT cell proliferation assay (ATCC®, Middlesex, UK) according to the manufacturer's protocol. IC50 was calculated using the BioDataFit 1.02 software http://www.changbioscience.com/stat/ec50.html.

LNCaP-WT cells = assay: MTT cytotoxicity assay, LNCaP-WT; details: Homo sapiens, read-out: IC50 (MTT cytotoxicity)
Description: as §3

LNCaP-S14 cells [14] = assay: MTT cytotoxicity assay, LNCaP-S14; details: Homo sapiens, 72 h, read-out: IC50 (MTT cytotoxicity)
Description: as §3

## CC(C)(C)c1cc2cc(NC(=O)c3cccs3)ccc2[nH]1 [SMIP001]
LNCaP-S14 cells [1]
  Cell cycle distribution G1: 84.8 and 86.8
  Cell cycle distribution G2: 6.3 and 3.5
  Cell cycle distribution S: 7.2 and 6.9
DU145 cells [2]
  Cell cycle distribution G1: 65.6 and 71.1
  Cell cycle distribution G2: 9.7 and 13.6
  Cell cycle distribution S: 23.9 and 13.4
PC3 cells
  Cell cycle distribution G1: 48.6 and 57.5
  Cell cycle distribution G2: 29.7 and 27.8
  Cell cycle distribution S: 20.4 and 13.6
IMR90 cells
  Cell cycle distribution G1: 68.4 and 77.0
  Cell cycle distribution G2: 15.3 and 14.1
  Cell cycle distribution S: 16.2 and 8.9
[3]
  p27 protein level (immunoblot, DMSO = 1.0): 1.9 ± 0.5
[4]
  p21 protein level (immunoblot, DMSO = 1.0): 2.0 ± 0.6
[5]
  p21 protein level (immunoblot, DMSO = 1.0): 1.7 ± 0.6
[6]
  p27 protein level (immunoblot, DMSO = 1.0): 1.3 ± 0.6
[7]
  p21 protein level (immunoblot, DMSO = 1.0): 1.1 ± 0.5
[8]
  p27 protein level (immunoblot, DMSO = 1.0): 1.1 ± 0.1
[9]
  p21 protein level (immunoblot, DMSO = 1.0): 1.1 ± 0.2
[10]
  p21 protein level (immunoblot, DMSO = 1.0): 1.1 ± 0.0
[11]
  p27 half-life: No effect
LNCaP-S14 cells [12]
  increase in the amount of mono and oligonucleosomes: three- to fivefold
DU145 cells [13]; DU-145, 72 h
  IC50: ~40 µM
DU145 cells [13]; DU-145, 96 h
  IC50: 32.5 µM
LNCaP-WT cells; 72 h
  IC50: 47.1 µM
LNCaP-WT cells; 96 h
  IC50: 32.7 µM
LNCaP-S14 cells [14]
  IC50: 4.63 µM

Source: article PMC3025922 (BMC Biology, 2010)
